# Measurements as given in article doi:10.1101/2019.12.17.868638v2 (biorxiv, 2019).
# System: RlSQase* (sulfoquinovosidase, K375A/K376A SERp variant)
# Conditions: 50 mM sodium phosphate, 150 mM NaCl, pH 7.2, 30 °C, 212 nM enzyme
structure (smiles),measurement,value
O=[N+]([O-])c1ccc(O[C@H]2O[C@H](CS(=O)(=O)O)[C@@H](O)[C@H](O)[C@H]2O)cc1 [PNPSQ],Km,680 ± 250 µM
